From patent US20030013660A1, “Dioxolane analogs for improved inter-cellular delivery” (Shire BioChem Inc., priority 2000, published 2003) come the findings set out here.

Common to all, as to experiment: 3H-TdR (3H-thymidine) incorporation assay at 72 hr
The test system of one test is MCF-7. Type of test: cell-based, Human. The following applies: Homo sapiens, MCF7, read-out: IC50 MCF-7 24 h, 24 h drug exposure, wash, another 48 hr; 3H-TdR incorporation at 72 hr.
In a further test the test system is H-460. It counts as cell-based, Human. The following applies: Homo sapiens, NCI-H460, read-out: IC50 H-460 24 h, 24 h drug exposure, wash, another 48 hr; 3H-TdR incorporation at 72 hr.
The test system of a further test is SF-268. It counts as cell-based, Human. To be noted: Homo sapiens, SF-268, read-out: IC50 SF-268 24 h, 24 h drug exposure, wash, another 48 hr; 3H-TdR incorporation at 72 hr.
The next test relates to CEM/dCK-. Type of test: cell-based. To be noted: for IC50: Homo sapiens, CCRF-CEM, read-out: IC50 CEM/dCK- 24 h, 24 h drug exposure, wash, another 48 hr, deoxycytidine kinase-deficient CCRF-CEM; for Factor* (Resistance Factor = Ratio of dCK- on Wild-type CCRF-CEM): ratio of IC50 CEM/dCK- to CCRF-CEM, 24 h. The method, then: (§1) Table of IC50 Values (μM) for Controls
(§2) Exposition of 24 hr to drug, wash, incubated for another 48 hr (total of 72 hr assay)
(§3) (3H-Thymidine Incorporation Assay)

In another test the test system is CCRF-CEM. It counts as cell-based. To be noted: Homo sapiens, CCRF-CEM, read-out: IC50 CCRF-CEM 24 h, 24 h drug exposure, wash, another 48 hr; 3H-TdR incorporation at 72 hr. How it is done: as §1, §2, §3

SMILES strings stand for the structures.

Regarding `O=C(Nc1ccn([C@@H]2CO[C@H](COC(=O)OCc3ccccc3)O2)c(=O)n1)OCc1ccccc1` [Compound 51, 4-(4- BENZYLOXYCARBONYLAMINOC YTOSYL)-[1,3]DIOXOLAN- 2-YLMETHYL BENZYL CARBONATE], the IC50 in the test with MCF-7 amounted to 570 nM; in the test on H-460, 830 nM; in the test on SF-268 it was 860 nM; in the test with CEM/dCK- it was 47000 nM; in the test on CCRF-CEM, 24 nM. Further, the “Factor* (Resistance Factor = Ratio of dCK- on Wild-type CCRF-CEM)” value in the test on CEM/dCK- was 1,958.
As to `CC(CCCCN(Cc1ccccc1)C(=O)OC(C)(C)C)C(=O)Nc1ccn([C@@H]2CO[C@H](CO)O2)c(=O)n1` (stereo in doubt) [Compound 158, Benzyl-{5-[1-(2-hydroxymethyl-[1,3]dioxolan-4-yl)-2-oxo-1,2-dihydro-pyrimidin-4-ylcarbamoyl]-hexyl}-carbamic acid tert-butyl ester], the IC50 in the test on MCF-7 was 40 nM; with H-460, 630 nM; in the test with SF-268, 3700 nM; in the test with CEM/dCK-, 58000 nM; in the test on CCRF-CEM, 94 nM. Besides, in the test on CEM/dCK-, the “Factor* (Resistance Factor = Ratio of dCK- on Wild-type CCRF-CEM)” value was determined as 617.
`CCCCC(C)C(=O)OC[C@H]1OC[C@@H](n2ccc(/N=C/N(C)C)nc2=O)O1` (stereo partly drawn) [Compound 64, (2S,4S)-2-(2″-METHYL- HEXANOICOXYMETHYL)-4- (4′-NN- DIMETHYLAMINOMETHYLENE- CYTOSIN-1′-YL)-1,3- DIOXOLANE]: the IC50 is 4.4 nM in the test on MCF-7; 1.7 nM in the test on H-460; 7.1 nM in the test on SF-268; 3600 nM in the test with CEM/dCK-; 1.8 nM in the test on CCRF-CEM. Also, the “Factor* (Resistance Factor = Ratio of dCK- on Wild-type CCRF-CEM)” value in the test with CEM/dCK- is reported as 2,000.
As for `CN(C)/C=N/c1ccn([C@@H]2CO[C@H](COC(=O)Cc3ccc(N(C)C)cc3)O2)c(=O)n1` [Compound 143, (2S,4S)-2-(4″-N,N- DIMETHYLAMINOPHENYLACET OXY)METHYL-4-(4′-N,N- DIMETHYLAMINOMETHYLENE- CYTOSIN-1′-YL)-1,3- DIOXOLANE], the IC50 amounted to 3.7 nM with MCF-7; 12 nM with H-460; 140 nM in the test on SF-268; 32000 nM with CEM/dCK-; 3.9 nM in the test with CCRF-CEM. Besides, in the test with CEM/dCK-, the “Factor* (Resistance Factor = Ratio of dCK- on Wild-type CCRF-CEM)” value is 8,205.
Regarding `CC(C)OC(=O)OCOC[C@H]1OC[C@@H](n2ccc(N)nc2=O)O1.O=C(O)C(F)(F)F` [Compound 68, CARBONIC ACID 4-(4- AMINO-2-OXO-2H- PYRIMIDIN-1-YL)- [1,3]DIOXOLAN-2- YLMETHOXYMETHYL ESTER ISOPROPYL ESTER TRIFLUOROACETIC ACID SALT], the IC50 with MCF-7 is 76 nM; in the test on H-460, 19 nM; in the test on SF-268 it was 210 nM; in the test on CEM/dCK- it was greater than 100000 nM; in the test on CCRF-CEM, 30 nM. Besides, the “Factor* (Resistance Factor = Ratio of dCK- on Wild-type CCRF-CEM)” value in the test with CEM/dCK- was 3,333.
Take `CC(C(=O)OC[C@H]1OC[C@@H](n2ccc(/N=C/N(C)C)nc2=O)O1)c1ccccc1` (stereo partly drawn) [Compound 70, (2S,4S)-2-(2″- METHYLPHENYLACETOXY)MET HYL-4-(4′-N,N- DIMETHYLAMINOMETHYLENE- CYTOSIN-1′-YL)-1,3- DIOXOLANE]: the IC50 in the test with MCF-7 came to 47 nM; in the test on H-460 it was 36 nM; in the test with SF-268 it was 270 nM; in the test on CEM/dCK-, 30000 nM; in the test on CCRF-CEM, 8.8 nM. Moreover, the “Factor* (Resistance Factor = Ratio of dCK- on Wild-type CCRF-CEM)” value with CEM/dCK- is 3,409.
In the case of `CN(C)/C=N/c1ccn([C@@H]2CO[C@H](COC(=O)C(c3ccccc3)c3ccccc3)O2)c(=O)n1` [Compound 130, (2S,4S)-2-(2″- DIPHENYLACETOXYMETHYL)- 4-(4′-N,N- DIMETHYLAMINOMETHYLENE- CYTOSIN-1′-YL)-1,3- DIOXOLANE], the IC50 was determined as 50 nM in the test with MCF-7; 58 nM in the test on H-460; 110 nM in the test on SF-268; 75000 nM with CEM/dCK-; 57 nM with CCRF-CEM. Moreover, in the test on CEM/dCK-, the “Factor* (Resistance Factor = Ratio of dCK- on Wild-type CCRF-CEM)” value is reported as 1,316.
`CC(C)[C@H](N)C(=O)Nc1ccn([C@@H]2CO[C@H](CO)O2)c(=O)n1.O=C(O)C(F)(F)F` [Compound 280, 2-Amino-N-[1-(2-hydoxymethyl-[1,3]dioxolan-4-yl)-2-oxo-1,2-dihydro-pyrimidin-4-yl]-3-methyl-butyramide; trifluoroacetic acid salt]: the IC50 in the test on MCF-7 is 3100 nM; in the test with H-460, 1900 nM; with SF-268, 18000 nM; in the test on CEM/dCK- it was greater than 100000 nM; with CCRF-CEM, 1900 nM. Moreover, the “Factor* (Resistance Factor = Ratio of dCK- on Wild-type CCRF-CEM)” value with CEM/dCK- is greater than 53.
Consider `Cl.Nc1ccn([C@@H]2CO[C@H](COC(=O)Oc3ccc([N+](=O)[O-])cc3)O2)c(=O)n1` [Compound 88, 1-[2-(4-NITRO- PHENOXYCARBONYLOXYMETHY L)-[1,3]DIOXOLAN-4-YL]- 2-OXO-1,2-DIHYDRO- PYRIMIDIN-4-YL- AMMONIUM; CHLORIDE], for which the IC50 with MCF-7 was 190 nM; with H-460 it was 140 nM; in the test on SF-268, 610 nM; with CEM/dCK-, 82000 nM; in the test with CCRF-CEM it was 88 nM. Further, in the test on CEM/dCK-, the “Factor* (Resistance Factor = Ratio of dCK- on Wild-type CCRF-CEM)” value amounted to 931.
Regarding `O=C(NCc1ccccc1)Nc1ccn([C@@H]2CO[C@H](COC(=O)NCc3ccccc3)O2)c(=O)n1` [Compound 109, BENZYL-CARBAMIC ACID 4- [4-(3-BENZYL-UREIDO)-2- OXO-2#H!-PYRIMIDIN-1- YL]-[1,3]DIOXOLAN-2- YLMETHYL ESTER], the IC50 was 31000 nM in the test on MCF-7; 2600 nM in the test on H-460; 4800 nM in the test with SF-268; greater than 100000 nM in the test on CEM/dCK-; 1000 nM with CCRF-CEM. The “Factor* (Resistance Factor = Ratio of dCK- on Wild-type CCRF-CEM)” value in the test on CEM/dCK- is on record as greater than 100.
For `COc1ccc(OC(=O)OC[C@H]2OC[C@@H](n3ccc(N)nc3=O)O2)cc1` [Compound 118, CARBONIC ACID 4-(4- AMINO-2-OXO-2H- PYRIMIDIN-1-YL)- [1,3]DIOXOLAN-2- YLMETHYL ESTER 4- METHOXY-PHENYL ESTER], the IC50 with MCF-7 is 77 nM; in the test on H-460 it was 22 nM; with SF-268, 160 nM; with CEM/dCK- it was greater than 100000 nM; with CCRF-CEM, 28 nM. Also, the “Factor* (Resistance Factor = Ratio of dCK- on Wild-type CCRF-CEM)” value with CEM/dCK- is greater than 3571.
Consider `CC(=O)OCC1OC2OC(C)(OC[C@H]3OC[C@@H](n4ccc(NC(=O)OCc5ccccc5)nc4=O)O3)OC2C(OC(C)=O)C1OC(C)=O` (stereo in doubt) [Compound 148, Acetic acid 6-acetoxy-5-acetoxymethyl-2-[4-(4-benzyloxycarbonylamino-2-oxo-2H-pyrimidin-1-yl)-[1,3]dioxolan-2-ylmethoxy]-2-methyl-tetrahydro-[1,3]dioxolo[4,5-b]pyran-7-yl ester], for which the IC50 in the test on MCF-7 was 6300 nM; in the test on H-460, 36000 nM; in the test on SF-268, 9900 nM; with CEM/dCK- it was 24000 nM; in the test with CCRF-CEM, 6300 nM. For the same molecule, in the test on CEM/dCK-, the “Factor* (Resistance Factor = Ratio of dCK- on Wild-type CCRF-CEM)” value came out at 4.
As for `CCCCOC(=O)Nc1ccn([C@@H]2CO[C@H](CO)O2)c(=O)n1` [Compound 59, [1-(2-HYDROXYMETHYL- [1,3]DIOXOLAN-4-YL)-2- OXO-1,2-DIHYDRO- PYRIMIDIN-4-YL]- CARBAMIC ACID BUTYL ESTER], the IC50 in the test on MCF-7 was 190 nM; in the test with H-460 it was 1400 nM; in the test on SF-268 it was 690 nM; with CEM/dCK-, greater than 100000 nM; with CCRF-CEM, 540 nM. Also, in the test with CEM/dCK-, the “Factor* (Resistance Factor = Ratio of dCK- on Wild-type CCRF-CEM)” value was 185.
On to `CC(C)c1ccc(NC(=O)OC[C@H]2OC[C@@H](n3ccc(NC(=O)OCc4ccccc4)nc3=O)O2)cc1` [Compound 124, {1-[2-(4-ISOPROPYL- PHENYLCARBAMOYLOXYMETHY L)-[1,3]DIOXOLAN-4-YL]- 2-OXO-1,2-DIHYDRO- PYRIMIDIN-4-YL}- CARBAMIC ACID BENZYL ESTER], for which the IC50 is 14000 nM in the test on MCF-7; 13000 nM in the test on H-460; 49000 nM with SF-268; 27000 nM in the test with CEM/dCK-; 14000 nM with CCRF-CEM. Besides, in the test with CEM/dCK-, the “Factor* (Resistance Factor = Ratio of dCK- on Wild-type CCRF-CEM)” value is given as “˜2”.
Turning to `CCCCCCNC(=O)Nc1ccn([C@@H]2CO[C@H](COC(=O)NCCCCCC)O2)c(=O)n1` [Compound 119, HEXYL-CARBANIC ACID 4- [4-(3-HEXYL-UREIDO)-2- OXO-2#H!-PYRIMIDIN-1- YL]-[1,3]DIOXOLAN-2- YLMETHYL ESTER], the IC50 with MCF-7 was 27000 nM; in the test with H-460, 17000 nM; in the test with SF-268, 94000 nM; in the test on CEM/dCK-, 96000 nM; in the test on CCRF-CEM, 56000 nM. Besides, the “Factor* (Resistance Factor = Ratio of dCK- on Wild-type CCRF-CEM)” value in the test with CEM/dCK- is given as “˜2”.
On to `COC(=O)CCCC(=O)OC[C@H]1OC[C@@H](n2ccc(N)nc2=O)O1` [Compound 82, PENTANEDIOIC ACID 4-(4- AMINO-2-OXO-2#H!- PYRIMIDIN-1-YL)- [1,3]DIOXOLAN-2- YLMETHYL ESTER METHYL ESTER], for which the IC50 in the test on MCF-7 was 120 nM; with H-460, 170 nM; in the test with SF-268, 300 nM; with CEM/dCK-, greater than 100000 nM; in the test with CCRF-CEM it was 53 nM. Further, the “Factor* (Resistance Factor = Ratio of dCK- on Wild-type CCRF-CEM)” value in the test with CEM/dCK- is reported as 1,887.
